Where two headings read alike, the source gives them in different places.
Experiments:
MM1.S cells = assay: Cell viability assay (MTS assay); type: cell-based
Protocol: Cell Viability Assay 1. Cell Line
The multiple myeloma cell line MM1.S was obtained from the ATCC.
Eight thousand MM1.S cells per well were seeded in tissue culture-treated 96-well plate (Nunc) and incubated overnight.
Each well had the same DMSO concentration of 0.05%.
The effects of compounds on cell viability were assessed using CellTiter 96®A Queous One solution Reagent (Promega; G3580).
After being treated with various compounds for 72 hrs, cells in the 96-well plate were centrifuged 1000 rpm for 3 minutes, and 180 ul supernatant were removed from each well. Cells were incubated with 20 ul CellTiter 96®A Queous One solution Reagent and put into incubator with 5% CO2. at 37° C. for an additional 4 hrs. The absorbance was measured at 490 nm with Automatic Microplate reader (Infinite M1000 pro, Tecan). […] Four sets of experiments for each drug combinations were carried out. Cell viability (Percentage of Cell Survival) was calculated by the following formula: cell viability (%)=(average absorbance of treated group-average absorbance of blank)/(average absorbance of untreated group−average absorbance of blank)×100%. IC50 values were calculated using Prism software.

[1] = Stability study (three storage/solution conditions, by RP-HPLC); type: physicochemical; parameters: key to Stability, Room Temp Dry / Stability, 30° C./65% Humidity / Stability, 37° C. H2O/pH 7.4: “+” meaning stable; “−” meaning quickly degradable; conditions: for Stability, Room Temp Dry: room temperature (20° C.) under inert dry gas, determined by RP-HPLC; for Stability, 30° C./65% Humidity: sealed with double bags in stability chamber
Protocol: Compounds were tested for their stability, under three different conditions (see Table 2), by the following procedures: • 1. Room Temperature and Dry: compounds were left at the room temperature (20° C.) under inert dry gas; • 2. 30° C. and 65% Humidity: compounds sealed with double bags were put into a stability chamber. Temperature was set at 30° C. while the humidity was controlled at 65%. • 3. 37° C. pH=7.4 solution: compounds were dissolved in PBS solution and then the entire solution was submerged under a 37° C. water bath.

[2] = Homo sapiens, MM1.S, 72 h, MM1.S cells, 72 hrs treatment, MTS assay, n=4, read-out: IC50
[3] = dissolved in PBS solution, 37° C. water bath, RP-HPLC
[4] = MM1.S cells, 72 hrs treatment, MTS assay
[5] = MM1.S cells, 72 hrs treatment, MTS assay, n=4, read-out: IC50

| IC50 (MM1.S cells; [2]) [nM] | Stability, 37° C. H2O/pH 7.4 (result in words) [1, 3] | Stability, Room Temp Dry [1] | Stability, 30° C./65% Humidity ([1]; RP-HPLC) | IC50 (MM1.S cells; [5]) [nM] | Structure (SMILES) | IC50 (MM1.S cells; Homo sapiens, MM1.S, 72 h) [nM] | Cytotoxic effects on MM1.S cells (in words) (MM1.S cells; [4]) | Stability, 37° C. H2O/pH 7.4 [1, 3] |
| --- | --- | --- | --- | --- | --- | --- | --- | --- |
| 9.45 | Decompose Instant | + | − |  | CC(C)C[C@H](NC(=O)CNC(=O)c1cc(Cl)ccc1Cl)B(O)O [HL01-17] |  |  |  |
|  |  | − |  |  | CC(C)C[C@H](NC(=O)[C@H](Cc1ccccc1)NC(=O)c1cnccn1)B(O)O [HL01-0, [(1R)-3-methyl-1-[[(2S)-1-oxo-3-phenyl-2[(pyrazinylcarbonyl)amino]propyl]amino]butyl] boronic acid, reference compound] |  |  |  |
|  |  |  |  | 1.76 | CC(C)C[C@H](NC(=O)[C@H](Cc1ccccc1)NC(=O)c1cnccn1)B(O)O [Bortezomib, reference compound] |  | strong cytotoxic effects |  |
| ~2 |  | + | + | 1.62 | CC(C)C[C@H](NC(=O)[C@H](Cc1ccccc1)NC(=O)c1cnccn1)[B-]12OC(=O)C[N+]1(C)CC(=O)O2 (stereo partly drawn) [HL01-11] |  | strong cytotoxic effects | + |

| Structure (SMILES) | IC50 (MM1.S cells; [2]) [nM] | Stability, 37° C. H2O/pH 7.4 (result in words) [1, 3] | Stability, Room Temp Dry [1] | Stability, 30° C./65% Humidity ([1]; RP-HPLC) | IC50 (MM1.S cells; [5]) [nM] | IC50 (MM1.S cells; Homo sapiens, MM1.S, 72 h) [nM] | Cytotoxic effects on MM1.S cells (in words) (MM1.S cells; [4]) | Stability, 37° C. H2O/pH 7.4 [1, 3] |
| --- | --- | --- | --- | --- | --- | --- | --- | --- |
| CC(C)C[C@H](NC(=O)CNC(=O)c1cc(Cl)ccc1Cl)[B-]12OC(=O)C[N+]1(C)CC(=O)O2 (stereo partly drawn) [HL01-15] |  |  | + | + |  | 6.85 | weaker than the other compounds | + |
